Source: ChEMBL document CHEMBL1126192, “PgH2 analogs as potential antiplatelet derivatives” (J Med Chem, 1992)
pIC50: −log10 of the molar value.

Assays:
Thromboxane A2 receptor = target: T1, Thromboxane A2 receptor (Homo sapiens, UniProt P21731); test: Compound was evaluated for the competitive binding of [3H]U-46619 to washed human platelets at the Thromboxane A2 receptor
T1 sequence (P21731 whole entry): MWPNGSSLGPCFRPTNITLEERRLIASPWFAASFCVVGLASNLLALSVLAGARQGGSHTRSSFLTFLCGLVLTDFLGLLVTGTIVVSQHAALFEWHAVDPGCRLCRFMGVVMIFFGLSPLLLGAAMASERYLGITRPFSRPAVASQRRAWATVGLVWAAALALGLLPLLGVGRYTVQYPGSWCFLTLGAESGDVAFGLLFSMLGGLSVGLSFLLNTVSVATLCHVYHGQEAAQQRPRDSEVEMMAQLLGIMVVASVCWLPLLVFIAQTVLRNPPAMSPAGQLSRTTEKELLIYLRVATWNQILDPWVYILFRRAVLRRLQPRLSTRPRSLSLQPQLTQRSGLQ

Homo sapiens = species on record: Homo sapiens; test: Compound was evaluated for the inhibition of U-46,619 induced aggregation of human platelet rich plasma; type: functional

| Compound | pIC50 (Thromboxane A2 receptor) | pIC50 (Homo sapiens) |
| --- | --- | --- |
| CCCCCCNC[C@H]1C2CC(CO2)[C@@H]1C/C=C\CCCC(=O)O (stereo partly drawn) | 4.60 | 4.66 |
| O=C(O)CCC/C=C\C[C@H]1C2COC(C2)[C@@H]1CNNC(=O)Nc1ccccc1 (stereo partly drawn) | – | 5.15 |
